Entries after “also recorded” stand apart in the source; their conditions may differ. Read-outs that look alike come from different tables or passages of the source. Where no end group is shown, it is not given here.
Experiments:
[1] = 1×iv, mice; cited from earlier work
[2] = cited from earlier work
[3] = system: non-senescent fibroblasts; test: Cytotoxicity, LDH release (CytoTox-ONE); assay type: cell-based; settings: 2 hours at 37° C.
senescent fibroblasts [4] = test: Cytotoxicity, LDH release (CytoTox-ONE); assay type: cell-based; settings: 2 hours at 37° C.
senescent fibroblasts [5] = test: Cell Proliferation Assay WST-1; assay type: cell-based
Procedure: (§1) Cell proliferation was assayed using the Cell Proliferation Reagent WST-1 (Roche, Mannheim, Germany) by following the manufacturer's instructions.

[6] = system: immortalized prostate epithelial cells; test: Cell Proliferation Assay WST-1; assay type: cell-based
Procedure: as §1

[7] = system: non-senescent fibroblasts; test: Cell Proliferation Assay WST-1; assay type: cell-based
Procedure: as §1

[8] = system: prostate epithelial cells (RWPE-1); test: Cytotoxicity, LDH release (CytoTox-ONE); assay type: cell-based; settings: immortalized prostate epithelial cells RWPE-1, 2 hours at 37° C.
senescent cells = test: Cell binding assay with radio-labeled peptide
Procedure: (§2) A senescent cell binding agent (SEQ ID NO:1) was conjugated at its C terminus to the linker sequence GGGC (SEQ ID NO:9) by synthesizing both as a single construct (i.e., SenC; SEQ ID NO:5). The purpose of attaching GGGC was that it can be used to chelate reduced 99m-Tc for radio-labeling. A 2 μL aliquot of conjugated senescent cell binding agent (3 M) was mixed with 40 μL of 0.25 M ammonium acetate, 15 μL of tartrate buffer pH 8.7, 4 μL of stannous chloride in 100 mM of sodium tartrate, and 30 μL of 99m-Tc pertechnetate. The mixture was heated for 25 minutes at 95° C. Quality control was performed with Sep-Pak and was always above 90% purity. A small aliquot was also injected on a Waters 600 HPLC to check the radiological profile. Fractions were collected and read on a gamma counter (Perkin-Elmer Wallac Wizard 1470).
(§3) Binding of radio-labeled SenC (SEQ ID NO:5) to senescent and non-senescent cells was tested by competition with unlabeled SenC. Peptide solutions were prepared to contain 0 or 20 μM of unlabeled SenC, 15 nM radio-labeled SenC, and 0.2% BSA. Chemically-induced senescent fibroblasts, their non-senescent counterparts, and prostate epithelial cells were prepared as above, harvested, and centrifuged. The cell pellets were resuspended in fresh media without FBS, and cells were counted. Peptide solution containing 0 or 20 μM unlabeled SenC and constant concentrations of SenC and 10^5 senescent cells were combined in a final volume of 200 μL of PBS in Eppendorf tubes and incubated for 4 hours. Cells were pelleted by centrifuging at 2500 rpm for 2 minutes and washed twice with PBS and 0.2% BSA. Pellets were suspended in 5 μL PBS and transferred to 12×75 mm tubes for counting radioactivity using a gamma counter (Perkin-Elmer Wallac Wizard 1470).

normal fibroblasts = test: Cell binding assay with radio-labeled peptide
Procedure: as §2, §3

prostate epithelium = test: Cell binding assay with radio-labeled peptide
Procedure: as §2, §3

[9] = absence of unlabeled peptide, 15 nM radio-labeled SenC, 4 hours
[10] = presence of 20 μM unlabeled SenC

CC[C@@]1(O)C(=O)OCc2c1cc1n(c2=O)Cc2cc3c(CN(C)C)c(O)ccc3nc2-1 [topotecan]
LD1Omice [1]: 75 mg/m^2

CC[C@]1(O)C[C@@H]2CN(CCc3c([nH]c4ccccc34)[C@@](C(=O)OC)(c3cc4c(cc3OC)N(C)[C@H]3[C@@](O)(C(=O)OC)[C@H](OC(C)=O)[C@]5(CC)C=CCN6CC[C@]43[C@@H]65)C2)C1 [vinblastine]
MTD ([2]; escalating): 3.3-11.1 mg/m^2
MTD ([2]; rarely to): 18.5 mg/m^2

GVYHFAPLTPTPGGGSKFAKFAKKFAKFAK (GVYHFAPLTPTPGGSKFAKFAKKFAKFAK) [SenL]
cell death (percentage of cells killed) [3]: some cytotoxicity is observed
cell death (percentage of cells killed) (senescent fibroblasts [4]): dose-dependent cell death at a significantly higher rate than either non-senescent fibroblasts or prostate epithelial cells
cell proliferation (WST-1, metabolic activity) (senescent fibroblasts [5]): no change in cell proliferation; also recorded: no significant effect on metabolic activity
cell proliferation (WST-1, metabolic activity) [6]: no change in cell proliferation; also recorded: no significant effect on metabolic activity
cell proliferation (WST-1, metabolic activity) [7]: no change in cell proliferation; also recorded: no significant effect on metabolic activity
cell death (percentage of cells killed) [8]: no cell death at all; also recorded: No cell death was observed

radio-labeled SenC: SenC (SEQ ID NO:5) radio-labeled with 99m-Tc chelated by GGGC (GVYHFAPLTPTPGGGC; also: 99mTc chelated by GGGC)
specificity of binding (absence vs. presence of unlabeled SenC) (senescent cells): specific binding
bound peptide, average (senescent cells; [9]): 0.32 % of added dose
bound peptide, average (senescent cells; [10]): 0.25 % of added dose
specificity of binding (absence vs. presence of unlabeled SenC) (normal fibroblasts): nonspecific
bound peptide, average (normal fibroblasts; [9]): 0.08 % of added dose
bound peptide, average (normal fibroblasts; [10]): 0.09 % of added dose
specificity of binding (absence vs. presence of unlabeled SenC) (prostate epithelium): nonspecific
bound peptide, average (prostate epithelium; [9]): 0.06 % of added dose
bound peptide, average (prostate epithelium; [10]): 0.06 % of added dose

Reference: patent publication US9969776B2, “Drug conjugates for delivering compounds to senescent cells” (Unity Biotechnology, Inc., priority 2007, dated 2018)
